According to patent US20090233910A1, “Npy antagonists, preparation and uses” (CEREP, priority 2005, published 2009):

Key:
[1] = target: T1, human Y5 receptor (Homo sapiens, UniProt Q15761); assay: Binding test to the NPY Y5 receptor ([125I]-human PYY, CHO cell membranes)
T1 construct: expressed in transfected cells; host or cells: CHO cells (CHO-Y5H), membrane preparation
T1 sequence (Q15761 1-445): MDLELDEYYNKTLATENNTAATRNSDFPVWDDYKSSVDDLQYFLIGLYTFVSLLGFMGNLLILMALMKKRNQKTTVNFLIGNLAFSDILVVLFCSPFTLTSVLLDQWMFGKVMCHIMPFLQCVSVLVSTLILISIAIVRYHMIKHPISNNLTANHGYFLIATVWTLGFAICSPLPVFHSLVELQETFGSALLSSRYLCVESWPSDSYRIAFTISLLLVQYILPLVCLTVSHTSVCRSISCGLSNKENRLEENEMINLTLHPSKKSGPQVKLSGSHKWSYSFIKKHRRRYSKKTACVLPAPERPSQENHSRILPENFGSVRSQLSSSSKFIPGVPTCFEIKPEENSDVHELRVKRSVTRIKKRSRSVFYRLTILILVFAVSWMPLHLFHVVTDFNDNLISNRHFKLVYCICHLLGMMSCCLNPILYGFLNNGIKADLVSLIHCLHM
Protocol: (§1) The CHO cells expressing either the Y4 or the Y5 human recombinant receptor are cultured in DMEM medium to which is added 5% dialysed foetal calf serum, 10 mM Hepes buffer and 0.8 g/l sodium bicarbonate. They are lifted from their support using a 36 mM citrate buffer without trypsin and without EDTA, and washed in PBS buffer free of Ca^2+ and of Mg^2+. The cell residues are stored at (−80° C.) until fractioning.
(§2) The cell residue is redissolved in 10 mM TRIS buffer, 3 mM MgCl2, pH 7.4 and separated with polytron. After centrifuging at 20 000×g the residue is redissolved in this same buffer, potter separated and aliquoted for storage in liquid nitrogen to around 5 mg/ml proteins.
(§3) Approximately 80 μg of membranes of CHO cells having stable expression of the human Y5 receptor are incubated for 60 min at 30° C. in 200 μl Krebs-Ringer buffer (pH 7.4) containing 20 mM Hepes, 1% bovine serum albumin, 0.25 mg/ml bacitracin and 0.1 nM of [^125I]-human PYY (Perkin Elmer, NEX 341). The reaction is halted by filtering through Wathman GF/C filters and washing with 3 times 4 ml of buffer at 4° C. The radioactivity deposited on the filter is counted with a gamma counter (Whizard 1470, Wallac, Perkin Elmer). Non-specific binding is determined in the presence of 0.3 μM porcine NPY (Neosystem, SC116). […]

[2] = target: T2, NPY Y1 receptor (Homo sapiens, UniProt P25929); assay: Binding test to the NPY Y1 receptor ([125I]-PYY, SK-N-MC cell suspension); conditions: SK-N-MC cells, 25 pM [125I]-PYY
T2 construct: host or cells: SK-N-MC cells (whole-cell suspension)
T2 sequence (P25929 1-384): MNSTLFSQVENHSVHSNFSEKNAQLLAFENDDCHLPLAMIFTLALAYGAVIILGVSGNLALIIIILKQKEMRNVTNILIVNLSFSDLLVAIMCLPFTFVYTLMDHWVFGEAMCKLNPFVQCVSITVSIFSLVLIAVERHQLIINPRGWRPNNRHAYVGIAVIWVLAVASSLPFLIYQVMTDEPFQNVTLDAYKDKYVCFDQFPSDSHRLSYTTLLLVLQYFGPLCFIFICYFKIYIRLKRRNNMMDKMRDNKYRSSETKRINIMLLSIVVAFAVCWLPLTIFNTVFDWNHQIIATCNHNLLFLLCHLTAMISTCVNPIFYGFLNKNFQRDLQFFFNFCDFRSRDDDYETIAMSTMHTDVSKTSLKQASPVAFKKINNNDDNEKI
Protocol: The SK-N-MC cells (ATCC HBT10) are cultured at 37° C. in MEM medium (minimum essential medium) free of phenol red (Invitrogen ref. 04194565M) containing 10% foetal calf serum (Invitrogen ref. 10270-106), 1% non-essential aminoacids (Invitrogen ref. 11140-035), 1% sodium pyruvate (Invitrogen ref. 11360-039), 1% glutamine (Invitrogen ref. 25030-032), 100 IU/ml of penicillin and 100 μg/ml of streptomycin (Invitrogen ref. 15140-122) in a humid atmosphere containing 5% CO2.
After aspirating the culture medium, the cells are washed with a phosphate buffer pH 7.4 (Invitrogen ref. 14190-094), then lifted with a Versene solution (Invitrogen, ref 15040-033). The cells are centrifuged at 500×g for 10 minutes at 4° C. then resuspended in a freeze buffer pH 7.4 containing 50 mM HEPES (N-2-hydroxyethylpiperazine-N′-2-ethanesulfonic acid), 145 mM sodium chloride, 2.6 mM calcium chloride, 1 mM magnesium chloride, 10 mM glucose, and 1 mg/ml bovine albumin. The cell suspension is aliquoted into twenty million cells per milliliter of buffer and stored at −70° C.
The cell suspension is incubated 2 hours at 37° C. in an incubation buffer pH 7.4 containing 50 mM HEPES, 2.5 mM calcium chloride, 1 mM magnesium chloride, 0.025% sodium azide, 1 mg/ml bovine albumin and 25 pM [^125I]-PYY (Perkin Elmer, NEX341). The reaction is halted by filtering through a GF/B filter pre-treated with 0.3% PEI, and washed three times with 1 ml of 50 mM TRIS buffer [tris(hydroxymethyl)aminomethane]/HCl, pH 7.4. The radioactivity deposited on the filter is measured by liquid scintillation count (TopCount, Packard). Non-specific binding is determined in the presence of 1 μM NPY (Bachem, H3322). Results are expressed as IC50 values in nM calculated by non-linear regression with 4 parameters.

[3] = target: T3, human Y4 receptor (Homo sapiens, UniProt P50391); assay: Binding test to the NPY Y4 receptor ([125I]-human PP, CHO cell membranes); conditions: human Y4, [125I]-human PP
T3 construct: expressed in transfected cells; host or cells: CHO cells (CHO-Y4H), membrane preparation
T3 sequence (P50391 whole entry): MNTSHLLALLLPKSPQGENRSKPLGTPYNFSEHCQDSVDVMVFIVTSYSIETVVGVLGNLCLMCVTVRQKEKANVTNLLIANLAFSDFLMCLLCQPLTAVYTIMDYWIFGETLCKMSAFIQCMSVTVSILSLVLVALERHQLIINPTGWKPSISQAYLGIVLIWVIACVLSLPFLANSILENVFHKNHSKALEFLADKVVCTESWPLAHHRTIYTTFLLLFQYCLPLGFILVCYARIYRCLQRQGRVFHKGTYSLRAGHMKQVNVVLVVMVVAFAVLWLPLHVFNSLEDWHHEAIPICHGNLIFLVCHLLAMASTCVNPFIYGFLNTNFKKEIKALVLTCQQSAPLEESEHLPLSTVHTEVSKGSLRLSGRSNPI
Protocol: as §1, §2
as §3, with “Y4” for “Y5”, “PP (Pancreatic Polypeptide, Perkin” for “PYY (Perkin”, “315).” for “341).”, “of human PP” for “porcine NPY”, “SC104).” for “SC116).”

IC50 ([1]; CHO membranes, human Y5, [125I]-human PYY): > 10000 nM
inhibition at 10 µM ([1]; inhibition of specific binding at 10 μM of compound, read-out: % Inh at 10 μM Y5): 0%
IC50 [2]: 1.8 nM
IC50 [3]: 2620 nM
SMILES: CCCCN1CCC(Oc2ccc(C(=O)Nc3ccc(Oc4ccc(NC(=O)NC(CC)CC)cc4OC)cc3)cc2)CC1 [Example 103, 4-(1-Butyl-piperidin-4-yloxy)-N-(4-{4-[3-(1-ethyl-propyl)-ureido]-2-methoxy-phenoxy}-phenyl)-benzamide]
